Tests used:
Assay type in all cases: in vivo
VIOAR (Viola arvensis) = assay: Post-emergence (PO) action against weeds, greenhouse trial, test method 2; settings: PO application; g of AS/ha: (A) 240, (B) 1200, (C) 140, (A)+(B)+(C) 240 + 1200 + 140
Experimental: (§1) In the standard design of the test, seeds of various broad-leaved weed and weed grass biotypes (origins) were sown in a 8-13 cm diameter pot filled with natural soil of a standard field soil (loamy silt; non-sterile) and covered with a covering soil layer of about 1 cm. The pots were then cultivated in a greenhouse (12-16 h of light, temperature day 20-22° C., night 15-18° C.) until the time of application. The pots were treated on a laboratory track sprayer with spray liquors comprising the compositions according to the invention, mixtures of the prior art or components used individually. Application of the active compounds or active compound combinations formulated as WG, WP, EC or otherwise was carried out at the appropriate growth stages of the plants. The application rate for the spray application was 100-600 l of water/ha. After the treatment, the plants were returned to the greenhouses.
(§2) About 3 weeks after the application, the soil action or/and foliar action was assessed visually according to a scale of 0-100% in comparison to an untreated comparative group: 0%=no noticeable effect compared to the untreated comparative group; 100%=full effect compared to the untreated comparative group.
(§3) (notes: the term “seeds” also includes vegetative propagation forms such as, for example, rhizome pieces; abbreviations used: h light=hours of illumination, g of AS/ha=gram of active substance per hectare, l/ha=liter per hectare, S=sensitive, R=resistant) • 1. Pre-emergence action against weeds: seeds of various broad-leaved weed and weed grass biotypes (origins) were sown in a 8-13 cm diameter pot filled with natural soil of a standard field soil (loamy silt; non-sterile) and covered with a covering soil layer of about 1 cm. The pots were then cultivated in a greenhouse (12-16 h of light, temperature day 20-22° C., night 15-18° C.) until the time of application. The pots were treated at the BBCH stage 00-10 of the seeds/plants on a laboratory track sprayer with spray liquors comprising the compositions according to the invention, mixtures or components used individually, as WG, WP, EC or other formulations. The application rate for the spray application was 100-600 l of water/ha. After the treatment, the plants were returned to the greenhouses and, when required, treated with fertilizer and watered. • 2. Post-emergence action against weeds: seeds of various broad-leaved weed and weed grass biotypes (origins) were sown in a 8-13 cm diameter pot filled with natural soil of a standard field soil (loamy silt; non-sterile) and covered with a covering soil layer of about 1 cm. The pots were then cultivated in a greenhouse (12-16 h of light, temperature day 20-22° C., night 15-18° C.) until the time of application. The pots were treated at various BBCH stages between 11-25 of the seeds/plants, i.e. generally between two to three weeks after the start of the cultivation, on a laboratory track sprayer with spray liquors comprising the compositions according to the invention, mixtures or components used individually, as WG, WP, EC or other formulations. The application rate for the spray application was 100-600 l of water/ha. After the treatment, the plants were returned to the greenhouses and, when required, treated with fertilizer and watered. • 3. […]

[1] = test system: HORVS (Hordeum vulgare, summer barley); assay: Selective post-emergence action (crop compatibility), greenhouse trial, test method 4; settings: PO application; g of AS/ha: (A) 240, (B) 1200, (C) 140, (A)+(B)+(C) 240 + 1200 + 140
Experimental: as §1, §2
(notes: the term “seeds” also includes vegetative propagation forms such as, for example, rhizome pieces; abbreviations used: h light=hours of illumination, g of AS/ha=gram of active substance per hectare, l/ha=liter per hectare, S=sensitive, R=resistant) • 1. Pre-emergence action against weeds: seeds of various broad-leaved weed and weed grass biotypes (origins) were sown in a 8-13 cm diameter pot filled with natural soil of a standard field soil (loamy silt; non-sterile) and covered with a covering soil layer of about 1 cm. The pots were then cultivated in a greenhouse (12-16 h of light, temperature day 20-22° C., night 15-18° C.) until the time of application. […]

LOLPE (Lolium perenne) [2] = assay: Pre-sowing application action against weeds (7 days prior to sowing), test method 5; settings: application 7 days prior to sowing; g of AS/ha: (A) 90, (B) 1200, (C) 140, (A)+(B)+(C) 90 + 1200 + 140
Experimental: as §1, §2
(notes: the term “seeds” also includes vegetative propagation forms such as, for example, rhizome pieces; abbreviations used: h light=hours of illumination, g of AS/ha=gram of active substance per hectare, l/ha=liter per hectare, S=sensitive, R=resistant) • 1. Pre-emergence action against weeds: seeds of various broad-leaved weed and weed grass biotypes (origins) were sown in a 8-13 cm diameter pot filled with natural soil of a standard field soil (loamy silt; non-sterile) and covered with a covering soil layer of about 1 cm. The pots were then cultivated in a greenhouse (12-16 h of light, temperature day 20-22° C., night 15-18° C.) until the time of application. The pots were treated at the BBCH stage 00-10 of the seeds/plants on a laboratory track sprayer with spray liquors comprising the compositions according to the invention, mixtures or components used individually, as WG, WP, EC or other formulations. The application rate for the spray application was 100-600 l of water/ha. After the treatment, the plants were returned to the greenhouses and, when required, treated with fertilizer and watered. • 2. Post-emergence action against weeds: seeds of various broad-leaved weed and weed grass biotypes (origins) were sown in a 8-13 cm diameter pot filled with natural soil of a standard field soil (loamy silt; non-sterile) and covered with a covering soil layer of about 1 cm. The pots were then cultivated in a greenhouse (12-16 h of light, temperature day 20-22° C., night 15-18° C.) until the time of application. […]

LOLPE (Lolium perenne) [3] = assay: PE action under various irrigation conditions, test method 6; settings: PE application, g of AS/ha: (A) 90, (B) 1200, (C) 140, (A)+(B)+(C) 90 + 1200 + 140
Experimental: as §1, §2
(§4) (notes: the term “seeds” also includes vegetative propagation forms such as, for example, rhizome pieces; abbreviations used: h light=hours of illumination, g of AS/ha=gram of active substance per hectare, l/ha=liter per hectare, S=sensitive, R=resistant) • 1. Pre-emergence action against weeds: seeds of various broad-leaved weed and weed grass biotypes (origins) were sown in a 8-13 cm diameter pot filled with natural soil of a standard field soil (loamy silt; non-sterile) and covered with a covering soil layer of about 1 cm. The pots were then cultivated in a greenhouse (12-16 h of light, temperature day 20-22° C., night 15-18° C.) until the time of application. The pots were treated at the BBCH stage 00-10 of the seeds/plants on a laboratory track sprayer with spray liquors comprising the compositions according to the invention, mixtures or components used individually, as WG, WP, EC or other formulations. The application rate for the spray application was 100-600 l of water/ha. After the treatment, the plants were returned to the greenhouses and, when required, treated with fertilizer and watered. • 2. Post-emergence action against weeds: seeds of various broad-leaved weed and weed grass biotypes (origins) were sown in a 8-13 cm diameter pot filled with natural soil of a standard field soil (loamy silt; non-sterile) and covered with a covering soil layer of about 1 cm. The pots were then cultivated in a greenhouse (12-16 h of light, temperature day 20-22° C., night 15-18° C.) until the time of application. The pots were treated at various BBCH stages between 11-25 of the seeds/plants, i.e. generally between two to three weeks after the start of the cultivation, on a laboratory track sprayer with spray liquors comprising the compositions according to the invention, mixtures or components used individually, as WG, WP, EC or other formulations. The application rate for the spray application was 100-600 l of water/ha. After the treatment, the plants were returned to the greenhouses and, when required, treated with fertilizer and watered. • 3. Selective pre-emergence action: seeds of various crop species (origins) were sown in a 8-13 cm diameter pot filled with natural soil of a standard field soil (loamy silt; non-sterile) and covered with a covering soil layer of about 1 cm. The pots were then cultivated in a greenhouse (12-16 h of light, temperature day 20-22° C., night 15-18° C.) until the time of application. The pots were treated at the BBCH stage 00-10 of the seeds/plants on a laboratory track sprayer with spray liquors comprising the compositions according to the invention, mixtures or components used individually, as WG, WP, EC or other formulations. The application rate for the spray application was 100-600 l of water/ha. […]

[4] = test system: MATCH (Matricaria chamomilla); assay: as above; settings: PE application; irrigation from below; g of AS/ha: (A) 90, (B) 1200, (C) 140, (A)+(B)+(C) 90 + 1200 + 140
Experimental: as §1, §2, §4

[5] = test system: MATCH (Matricaria chamomilla); assay: Action under various soil conditions (soil types), test method 7; settings: g of AS/ha: (A) 90, (B) 1200, (C) 140, (A)+(B)+(C) 90 + 1200 + 140
Experimental: as §1, §2, §4

[6] = test system: HORVS (Hordeum vulgare, summer barley); assay: Action under various soil conditions (soil types), test method 7, crop compatibility; settings: IU/EC73 soil versus IU soil; g of AS/ha: (A) 90, (B) 1200, (C) 140, (A)+(B)+(C) 90 + 1200 + 140
Experimental: as §1, §2, §3

[7] = test system: ALOMY resistant (Alopecurus myosuroides); assay: PE action on resistant weed biotypes, test method 8; settings: PE application; g of AS/ha: (A) 90, (B) 1200, (C) 140, (A)+(B)+(C) 90 + 1200 + 140, iodosulfuron 10
Experimental: as §1, §2, §4

[8] = test system: ALOMY sensitive (Alopecurus myosuroides); assay: as above; settings: PE application; g of AS/ha: (A) 90, (B) 1200, (C) 140, (A)+(B)+(C) 90 + 1200 + 140, iodosulfuron 10
Experimental: as §1, §2, §4

[9] = test system: LOLSS sensitive (Lolium species); assay: as above; settings: PE application; g of AS/ha: (A) 90, (B) 1200, (C) 140, (A)+(B)+(C) 90 + 1200 + 140, iodosulfuron 10
Experimental: as §1, §2, §4

AVEFA (Avena fatua) = assay: PE action at different soil pH values, test method 10; settings: PE application, g of AS/ha: (A) 90, (B) 1200, (C) 140, (A)+(B)+(C) 90 + 1200 + 140
Experimental: as §1, §2

Q: What does the source list for `CC(C)N(C(=O)COc1nnc(C(F)(F)F)s1)c1ccc(F)cc1` [(A) flufenacet, N-(4-fluorophenyl)-N-(1-methylethyl)-2-[[5-(trifluoromethyl)-1,3,4-thiadiazol-2-yl]oxy]acetamide]?
A: activity VIOAR (visual, scale 0-100%) (VIOAR (Viola arvensis)): 50%; activity HORVS (crop plant; visual, scale 0-100%) [1]: 60%; activity LOLPE (LOLPE (Lolium perenne) [2]): 93%; activity LOLPE (LOLPE (Lolium perenne) [3]; irrigation from above): 82%; activity LOLPE (LOLPE (Lolium perenne) [3]; irrigation from below): 75%; activity MATCH [4]: 15%; activity MATCH IU soil ([5]; IU soil): 28%; Difference of the soil types, MATCH ([5]; IU/EC73 soil versus IU soil): −23%; activity MATCH IU/EC73 soil ([5]; IU/EC73 soil): 5%; Difference of the soil types, HORVS [6]: −10%; activity ALOMY resistant [7]: 68%; activity ALOMY sensitive [8]: 80%; activity LOLSS sensitive [9]: 5%; activity AVEFA pH 7.4 (AVEFA (Avena fatua); soil pH 7.4): 80%; activity AVEFA pH 8.4 (AVEFA (Avena fatua); soil pH 8.4): 55%

Reference: patent US20110152093A1, “Herbicidal compositions comprising flufenacet” (Bayer CropScience AG, priority 2009, published 2011)
